Measured values reported in the supplement of paper PMC10307832.

Columns and labels:
Assay in all cases: relative viability (nuclei count vs DMSO), 5 days (fraction); higher = more cells survive
[1] = compound: Cn1cc(-c2cnn3c(N)c(Br)c([C@@H]4CCCNC4)nc23)cn1 + COc1cccc2cc(-c3nc([C@H]4CC[C@H](C(=O)O)CC4)n4ncnc(N)c34)[nH]c12 [OSI-027] (partner 0.5 µM)
In short: (§1)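 Values are medians from duplicate plates. Each reflects relative viability, defined as the nuclei count of treated wells over that of vehicle wells. Lung cancer cell lines in 1536-well plates were pin-tool dosed one day after seeding with one drug alone or with a fixed anchor-drug dose plus five library-drug doses (not always all listed) in √10 steps, then fixed, stained and imaged at 4× after 5 days.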

[2] = compound: Cn1cc(-c2cnn3c(N)c(Br)c([C@@H]4CCCNC4)nc23)cn1 + C[C@@H](Oc1cc(-c2cnn(C3CCNCC3)c2)cnc1N)c1c(Cl)ccc(F)c1Cl [Crizotinib] (partner 1 µM)
In short: as §1

[3] = compound: Cn1cc(-c2cnn3c(N)c(Br)c([C@@H]4CCCNC4)nc23)cn1 + N=C(N)NC(=N)NCCc1ccccc1 [Phenformin] (partner 250 µM)
In short: as §1

[4] = compound: Cn1cc(-c2cnn3c(N)c(Br)c([C@@H]4CCCNC4)nc23)cn1 + CC(=O)Nc1cccc(-n2c(=O)n(C3CC3)c(=O)c3c(Nc4ccc(I)cc4F)n(C)c(=O)c(C)c32)c1 [Trametinib] (partner 0.02 µM)
In short: as §1

Cell Line	relative viability ([1]; first compound 0.05 µM)	relative viability ([1]; first compound 0.5 µM)	relative viability ([1]; first compound 1.581 µM)	relative viability ([1]; first compound 5 µM)	relative viability ([2]; first compound 0.05 µM)	relative viability ([2]; first compound 0.1581 µM)	relative viability ([2]; first compound 0.5 µM)	relative viability ([2]; first compound 1.581 µM)	relative viability ([2]; first compound 5 µM)	relative viability ([3]; first compound 0.05 µM)	relative viability ([3]; first compound 0.1581 µM)	relative viability ([3]; first compound 0.5 µM)	relative viability ([3]; first compound 1.581 µM)	relative viability ([3]; first compound 5 µM)	relative viability ([4]; first compound 0.05 µM)	relative viability ([4]; first compound 0.1581 µM)	relative viability ([4]; first compound 0.5 µM)	relative viability ([4]; first compound 1.581 µM)	relative viability ([4]; first compound 5 µM)	relative viability ([1]; first compound 0.1581 µM)
201T	0.777	0.656	0.532	0.241	1.03	1.03	1.06	1.05	1.07	0.452	0.517	0.429	0.366	0.405	0.692	0.751	0.687	0.722	0.7	–
A-427	0.495	0.453	0.357	0.31	0.938	1.02	0.922	0.725	0.566	0.348	0.324	0.288	0.284	0.269	0.756	0.675	0.704	0.651	0.341	0.474
ABC-1	0.518	0.382	0.39	0.264	1.16	0.935	1.06	0.563	0.316	0.252	0.236	0.254	0.218	0.192	–	–	–	–	–	0.58
BEN	0.481	0.251	0.572	0.295	0.911	0.969	0.861	0.745	0.608	0.249	0.213	0.288	0.268	0.284	1.19	1.01	0.907	0.966	0.881	0.288
CAL-12T	0.554	0.682	0.266	0.121	0.612	0.459	0.485	0.321	0.176	0.478	0.585	0.537	0.377	0.155	0.288	0.346	0.315	0.33	0.278	0.841
COR-L23	0.813	0.671	0.393	0.255	0.594	0.809	0.731	0.518	0.179	0.479	0.474	0.443	0.298	0.191	0.694	0.671	0.582	0.437	0.232	0.927
COR-L 105	0.632	0.688	0.587	0.487	0.739	0.722	0.713	0.535	0.462	0.504	0.508	0.452	0.379	0.301	0.424	0.436	0.414	0.417	0.422	0.818
Calu-6	–	–	–	–	0.964	0.643	0.603	0.253	0.167	–	–	–	–	–	–	–	–	–	–	–
ChaGo-K-1	0.557	0.61	0.535	0.642	1.15	1.36	1.24	0.92	1.05	0.467	0.523	0.509	0.46	0.503	0.926	0.925	0.874	0.806	0.972	0.638
EKVX	0.676	0.733	0.71	0.633	0.942	1.27	1.09	0.821	0.945	0.223	0.254	0.257	0.245	0.194	0.445	0.317	0.413	0.377	0.409	0.75
EMC-BAC-2	0.368	0.408	0.37	0.355	0.73	0.769	0.715	0.646	0.703	0.515	0.509	0.505	0.405	0.461	0.885	0.664	0.927	0.878	0.515	0.367
EPLC-272H	0.256	0.359	0.224	0.166	0.943	1.07	1	0.945	0.826	0.288	0.275	0.321	0.292	0.188	0.276	0.273	0.286	0.272	0.218	0.309
H3255	0.744	0.601	0.584	0.481	0.799	0.852	0.942	0.729	0.5	0.372	0.353	0.345	0.385	0.322	0.694	0.534	0.668	0.633	0.405	0.523
HARA	0.469	0.685	0.408	0.149	0.935	1.12	0.987	0.842	0.369	0.468	0.518	0.448	0.36	0.136	0.762	0.474	0.482	0.532	0.344	0.606
HCC-15	0.781	0.682	0.566	0.533	0.926	0.98	0.877	0.722	0.652	0.494	0.524	0.429	0.406	0.349	0.38	0.421	0.379	0.393	0.409	0.739
HCC-44	–	0.683	0.414	0.434	0.906	1.02	0.913	0.86	0.789	0.155	0.193	0.179	0.188	0.172	0.998	1.09	1.12	1.08	1.13	0.604
HCC-78	–	0.345	0.354	0.517	0.323	0.391	0.378	0.344	0.218	–	0.687	0.796	0.7	0.605	0.822	1.14	0.834	0.844	0.674	0.347
